Data taken from ChEMBL document CHEMBL1275440, “In vitro activity of telavancin against resistant gram-positive bacteria” (2008).
≈ marks a conversion by molar mass, not a printed value. Calls of active or inactive are those of the source. The rule behind the calls is not given here.

Key:
Assay type in all cases: functional
Staphylococcus aureus [1] = assay: Antibacterial activity against methicillin resistant Staphylococcus aureus MED 2028 osteomyelitis isolate assessed as bacterial count at 4 ug/ml after 2 hrs by time-kill assay
Staphylococcus aureus [2] = assay: Antibacterial activity against methicillin resistant Staphylococcus aureus MED 2028 osteomyelitis isolate assessed as bacterial count at 2 ug/ml after 8 hrs by time-kill assay
Staphylococcus aureus [3] = assay: Antibacterial activity against methicillin resistant Staphylococcus aureus MED 2028 osteomyelitis isolate assessed as bacterial count at 1 ug/ml after 8 hrs by time-kill assay
[4] = tested on: Streptococcus constellatus; assay: Antibacterial activity against Streptococcus constellatus clinical isolate by broth microdilution method
Streptococcus agalactiae [5] = assay: Antibacterial activity against Streptococcus agalactiae group B clinical isolate by broth microdilution method
[6] = tested on: Staphylococcus auricularis; assay: Antibacterial activity against methicillin resistant coagulase-negative Staphylococcus auricularis clinical isolate by broth microdilution method
Staphylococcus aureus [7] = assay: Antibacterial activity against methicillin resistant Staphylococcus aureus clinical isolate by broth microdilution method
Streptococcus pyogenes = assay: Antibacterial activity against Streptococcus pyogenes MED 2040 assessed as bacterial count at […] after 24 hrs by time-kill assay
Enterococcus faecalis = assay: Antibacterial activity against Enterococcus faecalis ATCC 51575 assessed as bacterial count at 2 ug/ml after 4 hrs by time-kill assay
Streptococcus agalactiae [8] = assay: Antibacterial activity against Streptococcus agalactiae MED 2038 assessed as bacterial count at […] after 8 hrs by time-kill assay
Streptococcus agalactiae [9] = assay: Antibacterial activity against Streptococcus agalactiae MED 2038 assessed as bacterial count at […] after 2 hrs by time-kill assay
Streptococcus agalactiae [10] = assay: Antibacterial activity against Streptococcus agalactiae MED 2038 assessed as bacterial count at […] after 4 hrs by time-kill assay
Streptococcus pneumoniae = assay: Antibacterial activity against multidrug resistant Streptococcus pneumoniae MED 1090 assessed as bacterial count at […] after 2 hrs by time-kill assay
[11] = tested on: Staphylococcus epidermidis; assay: Antibacterial activity against methicillin resistant Staphylococcus epidermidis ATCC 35984 assessed as bacterial count at 16 ug/ml after 24 hrs by time-kill assay
[12] = tested on: Staphylococcus epidermidis; assay: Antibacterial activity against methicillin resistant Staphylococcus epidermidis ATCC 35984 assessed as bacterial count at 4 ug/ml after 2 hrs by time-kill assay
[13] = tested on: Staphylococcus epidermidis; assay: Antibacterial activity against methicillin resistant Staphylococcus epidermidis ATCC 35984 assessed as bacterial count at 2 ug/ml after 24 hrs by time-kill assay
Staphylococcus aureus [14] = assay: Antibacterial activity against methicillin resistant Staphylococcus aureus MED 1805 bloodstream isolate assessed as bacterial count at 16 ug/ml after 24 hrs by time-kill assay
Staphylococcus aureus [15] = assay: Antibacterial activity against methicillin resistant Staphylococcus aureus MED 1805 bloodstream isolate assessed as bacterial count at 4 ug/ml after 8 hrs by time-kill assay
Staphylococcus aureus [16] = assay: Antibacterial activity against methicillin resistant Staphylococcus aureus MED 1805 bloodstream isolate assessed as bacterial count at 2 ug/ml after 8 hrs by time-kill assay
Staphylococcus aureus [17] = assay: Antibacterial activity against methicillin resistant Staphylococcus aureus MED 1805 bloodstream isolate assessed as bacterial count at 2 ug/ml after 2 hrs by time-kill assay
Staphylococcus aureus [18] = assay: Antibacterial activity against methicillin resistant Staphylococcus aureus MED 2028 osteomyelitis isolate assessed as bacterial count at 8 ug/ml after 24 hrs by time-kill assay
Staphylococcus aureus [19] = assay: Antibacterial activity against methicillin resistant Staphylococcus aureus MED 2028 osteomyelitis isolate assessed as bacterial count at 8 ug/ml after 4 hrs by time-kill assay

With `CCCCCCCCCCNCCN[C@@]1(C)C[C@H](O[C@H]2[C@H](Oc3c4cc5cc3Oc3ccc(cc3Cl)[C@@H](O)[C@@H](NC(=O)[C@@H](CC(C)C)NC)C(=O)N[C@@H](CC(N)=O)C(=O)N[C@H]5C(=O)N[C@H]3C(=O)N[C@H](C(=O)N[C@H](C(=O)O)c5cc(O)c(CNCP(=O)(O)O)c(O)c5-c5cc3ccc5O)[C@H](O)c3ccc(c(Cl)c3)O4)O[C@H](CO)[C@@H](O)[C@@H]2O)O[C@@H](C)[C@H]1O` [TELAVANCIN] the log10CFU/ml (Staphylococcus aureus [1]) was 0.7, the log10CFU/ml (Staphylococcus aureus [2]) was 3.1 and the log10CFU/ml (Staphylococcus aureus [3]) was 3.4. The MIC [4] was 0.015 µg/mL (≈ 0.00854 µM), the MIC50 [4] was “inactive” and the MIC90 [4] was “inactive”. For the same compound, the MIC50 (Streptococcus agalactiae [5]) was 0.06 µg/mL (≈ 0.0342 µM), the MIC90 (Streptococcus agalactiae [5]) was 0.06 µg/mL (≈ 0.0342 µM) and the MIC50 [6] was 0.5 µg/mL (≈ 0.285 µM). It also gave an MIC90 [6] of 1 µg/mL (≈ 0.57 µM), an Activity (Staphylococcus aureus [7]) of 100% and an MIC50 (Staphylococcus aureus [7]; Staphylococcus aureus) of 0.25 µg/mL (≈ 0.142 µM). It also gave an MIC90 (Staphylococcus aureus [7]; Staphylococcus aureus) of 0.5 µg/mL (≈ 0.285 µM), a log10CFU/ml (Streptococcus pyogenes) of 2.2 and a log10CFU/ml (Enterococcus faecalis) of 0.5. The log10CFU/ml (Streptococcus agalactiae [8]) was 1.6, the log10CFU/ml (Streptococcus agalactiae [9]) was 1 and the log10CFU/ml (Streptococcus agalactiae [10]) was 0.8. For the same compound, the log10CFU/ml (Streptococcus pneumoniae) was 1.1, the log10CFU/ml [11] was 3.3 and the log10CFU/ml [12] was 1. It also gave a log10CFU/ml [13] of 3.1, a log10CFU/ml (Staphylococcus aureus [14]) of 3.3 and a log10CFU/ml (Staphylococcus aureus [15]) of 3. It also gave a log10CFU/ml (Staphylococcus aureus [16]) of 2.7, a log10CFU/ml (Staphylococcus aureus [17]) of 1 and a log10CFU/ml (Staphylococcus aureus [18]) of 3.4. For the same compound, the log10CFU/ml (Staphylococcus aureus [19]) was 2.2.
